{"source": "patent US8691256B2", "about": "“Pest control compositions and methods” (Tyratech, Inc., priority 2008, dated 2014)", "key": {"[1]": {"biological_target": "Aedes aegypti", "test": "Pesticidal effect (KD) against Aedes aegypti", "assay_type": "in vivo", "procedure": "With reference to FIG. 4A, the pesticidal effect against Aedes aegypti was determined for Blend 19 (labeled “HL1”, exemplified in Ingredient Family 15 in Table 6) and the composition including clothianidin (CL) and Blend 19.\nSimilarly, with reference to FIG. 4B, the pesticidal effect against Aedes aegypti was determined for Blend 19 (labeled “HL1”) and the composition including CL and Blend 19.\nSimilarly, with reference to FIG. 4C, the pesticidal effect against Aedes aegypti was determined for Blend 19 (labeled “HL1”) and the composition including Imidacloprid and Blend 19.\nWith reference to FIG. 5, the pesticidal effect against Aedes aegypti was determined for Blend 11 (labeled “B5028”, exemplified in Ingredient Family 2 in Table 6) and the composition including Imidacloprid (labeled “I”) and B5028."}, "[2]": {"tested_on": "Periplaneta americana", "test": "Pesticidal effect (mortality) against Periplaneta americana", "assay_type": "in vivo", "conditions": "30 minutes post-treatment, Blend 19 5%", "procedure": "With reference to FIG. 6A, the pesticidal effect against Periplaneta americana was determined for Blend 19 (labeled “HL1”, exemplified in Ingredient Family 15 in Table 6) and the composition including clothianidin (CL) and Blend 19.\nWith reference to FIG. 6B, the pesticidal effect against Periplaneta americana was determined for Blend 19 (labeled “HL1”) and the composition including Imidacloprid and Blend 19."}, "[3]": {"tested_on": "Blattella germanica (German cockroaches)", "test": "Pesticidal effect against German cockroaches (knock down and 100% kill time)", "assay_type": "in vivo", "procedure": "With reference to Table 9, the pesticidal effect against Blattella germanica (German cockroaches) was determined for DM, Blend 12 (exemplified in Ingredient Family 9 of Table 6), and the composition including deltamethrin (DM) and Blend 12.\nSimilarly, with reference to Table 10, the pesticidal effect against German cockroaches was determined for deltamethrin (DM), Blend 7 (exemplified in Ingredient Family 5 of Table 6), and the composition including DM and Blend 7."}, "[4]": {"tested_on": "Drosphila melanogaster", "test": "Toxicity against Drosphila melanogaster by direct spray onto flies", "assay_type": "in vivo, Drosophila melanogaster", "conditions": "30 flies per composition, Fipronil 20 ppm, Blend 19 0.5 μg/fly, combination 0.5 μg Blend 19 + 20 ppm fipronil", "procedure": "With reference to Table 14, the pesticidal effect against drosphila melanogaster was determined for Blend 19 and the composition including fipnoril and Blend 19. The composition of Blend 19 is also exemplified in Ingredient Family 15 of Table 6. Each composition was tested on 30 drosphila melanogaster by spraying directly onto the flies. Treatment with acetone as control at 0.5 μl/fly killed 2 flies, fipnoril alone at 20 ppm killed 12 flies, and Blend 19 alone at 0.5 μg/fly killed 10 flies. However, treatment with fipronil at 20 ppm combined with Blend 19 at 0.5 μg/fly killed all of the 30 flies."}, "[5]": {"tested_on": "Drosophila sp.", "test": "Pesticidal effect (KD) against Drosophila sp.", "assay_type": "in vivo", "conditions": "30 seconds post-treatment; Imidacloprid 50 ppm; Blend 19 2.5%; combination 50 ppm + 2.5% (FIG. 4D)", "procedure": "Similarly, with reference to FIG. 4D, the pesticidal effect against Drosophila sp. was determined for Blend 19 (labeled “HL1”) and the composition including Imidacloprid and Blend 19."}, "[6]": {"tested_on": "thrips", "test": "Knockdown and mortality of thrips", "assay_type": "in vivo", "procedure": "Thrips were exposed to three different groups of compositions. Both knockdown (KD) and mortality were measured at indicated time intervals. Knockdown of target pests is measured in a plexilglass chamber at indicated intervals. Mortality of target pests is measured in cylindrical polyethylene containers with 10% sucrose pads. The mortality value is based on a combination of dead and moribund pests over the total number of pests initially released.\nThrips were exposed to three different groups of compositions. […] The composition of Blend 8 is exemplified in Ingredient Family 21 in Table 6.\nThrips were exposed to three different groups of compositions. […] Blend 38 (label “B5049” and “TT 1A”) is exemplified in Ingredient Family 12 in Table 6."}, "[7]": {"tested_on": "adult green peach aphids", "test": "Greenhouse spray test against adult green peach aphids", "assay_type": "in vivo", "conditions": "imidacloprid in water at 100 ppm; three days after spraying", "text": "Adult green peach aphids were observed and counted on the plants in a greenhouse. Then different compositions were sprayed directly onto the plants with aphids. Three days after the composition was applied, aphids were counted again to evaluate the pesticidal effects of the composition."}, "[8]": {"biological_target": "T1, tyramine receptor (TyrR) (Drosophila melanogaster, UniProt P22270)", "T1 construct": "oligonucleotides that are used to amplify the open reading frame of the Drosophila tyramine receptor (TyrR); expressed in transfected cells; whole cells or crude membrane fractions", "T1 sequence (P22270 27-601)": "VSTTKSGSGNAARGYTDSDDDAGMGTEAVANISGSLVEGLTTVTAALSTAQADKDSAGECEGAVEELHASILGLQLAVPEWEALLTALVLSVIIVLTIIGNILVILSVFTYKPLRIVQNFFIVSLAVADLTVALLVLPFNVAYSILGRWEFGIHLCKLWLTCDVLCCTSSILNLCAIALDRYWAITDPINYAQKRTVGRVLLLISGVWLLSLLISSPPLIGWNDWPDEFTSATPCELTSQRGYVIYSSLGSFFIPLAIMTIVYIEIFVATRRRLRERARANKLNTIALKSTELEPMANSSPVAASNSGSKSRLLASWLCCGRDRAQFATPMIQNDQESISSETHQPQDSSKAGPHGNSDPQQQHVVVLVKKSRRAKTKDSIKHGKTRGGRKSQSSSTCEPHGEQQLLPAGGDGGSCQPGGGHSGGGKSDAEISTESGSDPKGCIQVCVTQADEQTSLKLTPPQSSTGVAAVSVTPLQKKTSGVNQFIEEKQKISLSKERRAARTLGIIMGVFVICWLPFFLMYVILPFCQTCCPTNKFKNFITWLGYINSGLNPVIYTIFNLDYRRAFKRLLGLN", "test": "3H-tyramine saturation and inhibition binding to membranes of Schneider cells expressing tyramine receptor", "conditions": "for efficiency at displacing ^3H-tyramine binding: compared with tyramine"}, "[9]": {"biological_target": "T2, tyramine receptor (Drosophila melanogaster, UniProt P22270)", "T2 construct": "oligonucleotides that are used to amplify the open reading frame of the Drosophila tyramine receptor (TyrR); expressed in transfected cells; whole cells or crude membrane fractions", "T2 sequence (P22270 27-601)": "T1 sequence (P22270 27-601)", "test": "Whole cell 3H-tyramine binding/uptake in transfected Schneider cells", "text": "For transfection, Drosophila Schneider cells are stably transfected with pAc5(B)-TyrR ORF using the calcium phosphate-DNA coprecipitation protocol as described by Invitrogen Drosophila Expression System (DES) manual. The precipitation protocol is the same for either transient or stable transfection except for the use of an antibiotic resistant plasmid for stable transfection. At least about ten clones of stably transfected cells are selected and separately propagated. Stable clones expressing the receptors are selected by whole cell binding/uptake using ^3H-tyramine. […] Nonspecific binding is determined by including about 50 μM unlabeled-tyramine in the reaction. Binding is quantified counting radioactivity using a using a Liquid Scintillation β-counter (Beckman, Model LS1801). […]\nCells transfected with the tyramine receptor (about 1×10^6 cells/ml) are cultured in each well of a multi-well plate. […] Solubilized cells are transferred into about 4 ml Liquid Scintillation Solution (LSS) and vigorously vortexed for about 30 sec before counting the radioactivity using a Liquid Scintillation β-counter (Beckman, Model LS1801) (LSC).\nReceptor specific binding data is expressed as fmol specific binding per 1×10^6 cells and measured as a function of ^3H-tyramine concentration. […]"}, "[10]": {"conditions": "Thrips, 24 h, read-out: mortality of the thrips"}, "[11]": {"conditions": "imidacloprid alone at 1 ppm, till the end of the experiment at 24 hours post treatment"}, "[12]": {"conditions": "imidacloprid alone at 10 ppm, till the end of the experiment at 24 hours post treatment"}, "[13]": {"conditions": "saturation binding to membranes of Schneider cells expressing tyramine receptor"}}, "note": "Read-outs that look alike come from different tables or passages of the source.", "data": [{"smiles": "CN/C(=N\\[N+](=O)[O-])NCc1cnc(Cl)s1", "note": "[CL, clothianidin]", "values": [{"measurement": "KD of the target insect", "setting": "[1]; CL alone at 250 ppm (FIG. 4B)", "result": "no KD"}, {"measurement": "KD of the target insect", "setting": "[1]; CL alone at 500 ppm (FIG. 4A)", "result": "no KD"}, {"measurement": "mortality of the target insect", "setting": "[2]; CL 0.05%, combination 0.05% + 5% (FIG. 6A)", "result": "no mortality"}]}, {"smiles": "CC1(C)[C@H](C(=O)O[C@H](C#N)c2cccc(Oc3ccccc3)c2)[C@@H]1C=C(Br)Br", "note": "[DM, deltamethrin]", "values": [{"measurement": "100% Kill", "setting": "[3]; Table 9: DM 0.037 mg/cm^2, Blend 12 1.9 mg/cm^2", "result": 15, "unit": "min"}, {"measurement": "100% Kill", "setting": "[3]; Table 10: DM 0.037 mg/cm^2", "result": 12, "unit": "min"}]}, {"smiles": "N#Cc1nn(-c2c(Cl)cc(C(F)(F)F)cc2Cl)c(N)c1[S+]([O-])C(F)(F)F", "note": "(centres unmarked) [Fipronil]", "values": [{"measurement": "# of Flies Killed", "setting": "[4]", "result": "12/30"}, {"measurement": "# of Flies Killed", "setting": "[4]; listed as fipnoril", "result": 12}]}, {"smiles": "O=[N+]([O-])NC1=NCCN1Cc1ccc(Cl)nc1", "note": "[Imidacloprid]", "values": [{"measurement": "KD of the target insect", "setting": "[1]; 30 seconds post-treatment, Imidacloprid 250 ppm, Blend 19 2.5%, combination 250 ppm + 2.5% (FIG. 4C)", "result": 20, "unit": "%"}, {"measurement": "KD of the target insect", "setting": "[1]; Imidacloprid 500 ppm, B5028 5%, combination 500 ppm + 5% (FIG. 5)", "result": "no KD"}, {"measurement": "KD of the target insect", "setting": "[5]", "result": 0, "unit": "%"}, {"measurement": "mortality of the target insect", "setting": "[2]; Imidacloprid alone at 0.05%, 0.033% and 0.01%, combination Imidacloprid 0.033% + 5% Blend 19 (FIG. 6B)", "result": "no mortality"}, {"measurement": "mortality at 100 ppm", "setting": "[6]; Thrips, 2 h, read-out: mortality of the thrips", "result": 10, "unit": "%"}, {"measurement": "mortality at 100 ppm", "setting": "[6]; Thrips, 4 h, read-out: mortality of the thrips", "result": 20, "unit": "%"}, {"measurement": "mortality at 50 ppm", "setting": "[6]; [10]", "result": 50, "unit": "%"}, {"measurement": "mortality at 100 ppm", "setting": "[6]; [10]", "result": 40, "unit": "%"}, {"measurement": "KD of the thrips", "setting": "[6]; [11]", "result": "no KD"}, {"measurement": "mortality of the thrips", "setting": "[6]; [11]", "result": "no mortality"}, {"measurement": "KD of the thrips", "setting": "[6]; [12]", "result": "no KD"}, {"measurement": "mortality of the thrips", "setting": "[6]; [12]", "result": "no mortality"}, {"measurement": "KD of the thrips", "setting": "[6]; imidacloprid alone at 20 ppm, 24 hours post treatment", "result": 12, "unit": "%"}, {"measurement": "mortality of the thrips", "setting": "[6]; imidacloprid alone at 20 ppm, till the end of the experiment at 24 hours post treatment", "result": "no mortality"}, {"measurement": "KD of the thrips", "setting": "[6]; imidacloprid alone at 50 ppm, 24 hours post treatment", "result": 100, "unit": "%"}, {"measurement": "KD of the thrips", "setting": "[6]; imidacloprid alone at 100 ppm, 2 hours post treatment", "result": 10, "unit": "%"}, {"measurement": "KD of the thrips", "setting": "[6]; imidacloprid alone at 100 ppm, 4 hours post treatment", "result": 20, "unit": "%"}, {"measurement": "KD of the thrips", "setting": "[6]; imidacloprid alone at 100 ppm, 24 hours post treatment", "result": 80, "unit": "%"}, {"measurement": "change in aphid numbers", "setting": "[7]", "result": "No changes in aphid numbers"}]}, {"smiles": "NCC(O)c1ccc(O)cc1", "note": "(centres unmarked) [Octopamine]", "values": [{"measurement": "rank order of potency (Ki and EC50)", "setting": "[8]", "result": "tyramine>octopamine>dopamine>serotonin"}, {"measurement": "efficiency at displacing ^3H-tyramine binding", "setting": "[8]", "result": "less efficient than tyramine"}]}, {"smiles": "NCCc1ccc(O)cc1", "note": "[Tyramine (TA), Tyramine]", "values": [{"measurement": "response of untransfected cells", "setting": "[9]; concentrations as high as about 100 μM", "result": "do not respond"}, {"measurement": "rank order of potency (Ki and EC50)", "setting": "[8]", "result": "tyramine>octopamine>dopamine>serotonin"}]}, {"smiles": "NCCc1ccc(O)cc1", "note": "[^3H-tyramine]", "values": [{"measurement": "^3H-tyramine concentration at which maximum specific binding occurs", "setting": "[9]; whole transfected cells", "result": "about 5 nM"}, {"measurement": "Bmax", "setting": "[8]; [13]", "result": "about 0.679 pmol/mg protein"}, {"measurement": "Kd", "setting": "[8]; [13]", "result": "~1.26", "unit": "nM"}]}, {"smiles": "NCCc1ccc(O)c(O)c1", "note": "[dopamine, Dopamine]", "values": [{"measurement": "rank order of potency (Ki and EC50)", "setting": "[8]", "result": "tyramine>octopamine>dopamine>serotonin"}, {"measurement": "efficiency at displacing ^3H-tyramine binding", "setting": "[8]", "result": "less efficient than tyramine"}]}]}
